# Values of other authors in patent US20100284985A1, “Composition” (Danisco A/S, priority 2007, published 2010).
# System: common food spoilage yeasts and moulds
# Settings: most strains of common food spoilage yeasts and moulds; cited from earlier work
smiles,measurement,value
C[C@@H]1C/C=C/C=C/C=C/C=C/[C@H](O[C@@H]2O[C@H](C)[C@@H](O)[C@H](N)[C@@H]2O)C[C@@H]2O[C@](O)(C[C@@H](O)C[C@H]3O[C@@H]3/C=C/C(=O)O1)C[C@H](O)[C@H]2C(=O)O [natamycin],concentrations inhibiting most strains,1-15 ppm
